Like-named read-outs stand apart in the source and are kept apart here.
Experiments:
5-HT transporter = molecular target: T1, 5-HT transporter (Rattus norvegicus, UniProt P31652); experiment: Rat Brain ^3 H-Paroxetine Binding Assay (RB 5HT Transporter)
T1 construct: frontal cortical membranes prepared from male S.D. rats; from tissue; host or cells: frontal cortical membranes of male S.D. (Sprague-Dawley) rats
Text: The 5-HT transporter affinity of the compounds of this invention was established in accordance with standard pharmaceutically accepted test procedures with representative compounds as follows:
Rat Brain ^3 H-Paroxetine Binding Assay (RB 5HT Transporter):
The following assay was used to determine a compound's affinity for the 5-HT transporter.
A protocol similar to that used by Cheetham et. al. (Neuropharmacol. 1993, 32, 737) was used. Briefly, frontal cortical membranes prepared from male S.D. rats were incubated with ^3 H-paroxetine (0.1 nM) for 60 min. at 25° C. All tubes also contained either vehicle, test compound (one to eight concentrations), or a saturating concentration of fluoxetine (10 μM) to define […]. All reactions are terminated by the addition of ice cold Tris buffer followed by rapid filtration using a Tom Tech filtration device to separate bound from free ^3 H-paroxetine. Bound radioactivity was quantitated using a Wallac 1205 Beta Plate® counter. Nonlinear regression analysis was used to determine IC50 values which were converted to Ki values using the method of Cheng and Prusoff (Biochem. Pharmacol. 1973, 22, 3099): [formula]

Human 5-HT Transporter = molecular target: T2, Human 5-HT Transporter (Homo sapiens, UniProt P31645); experiment: Inhibition of ^3 H-5-HT Uptake by cells Possessing the Human 5-HT Transporter (HC 5HT Transporter); type: cell-based
T2 construct: endogenous in cells; host or cells: Jar cells (human carcinoma cell line), treated with staurosporine to raise expression
T2 sequence (P31645 whole entry): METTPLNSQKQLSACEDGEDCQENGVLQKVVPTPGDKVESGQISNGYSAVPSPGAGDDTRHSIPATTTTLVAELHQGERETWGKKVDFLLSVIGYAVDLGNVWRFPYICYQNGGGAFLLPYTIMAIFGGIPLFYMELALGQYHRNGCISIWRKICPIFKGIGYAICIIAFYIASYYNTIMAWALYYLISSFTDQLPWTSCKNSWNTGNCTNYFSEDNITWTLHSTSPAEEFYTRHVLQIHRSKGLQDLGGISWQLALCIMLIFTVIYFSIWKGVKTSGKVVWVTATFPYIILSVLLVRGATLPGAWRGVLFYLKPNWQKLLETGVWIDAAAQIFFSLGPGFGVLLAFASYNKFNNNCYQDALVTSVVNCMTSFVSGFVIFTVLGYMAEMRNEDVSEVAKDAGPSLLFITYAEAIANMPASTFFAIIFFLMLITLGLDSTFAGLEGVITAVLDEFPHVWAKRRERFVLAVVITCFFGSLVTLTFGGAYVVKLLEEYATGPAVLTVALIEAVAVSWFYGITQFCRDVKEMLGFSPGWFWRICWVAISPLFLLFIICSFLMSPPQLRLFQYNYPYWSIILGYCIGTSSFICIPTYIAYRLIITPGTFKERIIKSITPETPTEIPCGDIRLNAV
Method: [Staurosporine greatly increases the expression of the 5-HT-transporter.] On the day of assay, vehicle, excess of fluoxetine, or test compound is added to various wells on the plate. All wells then receive ^3 H-5-HT and are incubated at 37° C. for 5 min. The wells are then washed with ice cold 50 mM Tris HCl (pH 7.4) buffer and aspirated to remove free ^3 H-5-HT. 25 μl of 0.25 M NaOH is then added to each well to lyse the cells and 75 μl scintillation cocktail (Microscint™ 20) added prior to quantitation on a Packard TopCount machine. Tubes with vehicle represent total possible uptake, radioactivity counted in tubes with fluoxetine represent nonspecific binding/uptake and is subtracted from the total possible uptake to give total possible specific uptake. This nonspecific binding (usual low in number) is then subtracted from the counts obtained in wells with various test compounds (or different concentrations of test drug) to give specific uptake in the presence of drug. Specific uptake is then expressed as a % of control values and is analyzed using nonlinear regression analysis (Prizm) to determine IC50 values. If the compound is active at inhibiting 5-HT uptake, its counts will be close to that obtained with fluoxetine.

[1] = RB 5HT Transporter Ki, rat frontal cortical membranes; ^3 H-paroxetine (0.1 nM), 60 min, 25° C.; n = 1
[2] = rat frontal cortical membranes; ^3 H-paroxetine (0.1 nM), 60 min, 25° C.; n = 1; read-out: RB 5HT Transporter Ki
[3] = Jar cells (human carcinoma), staurosporine treated, ^3 H-5-HT uptake, 37° C., 5 min, n = 1, read-out: HC 5HT Transporter IC50

T1 sequence (P31652 whole entry): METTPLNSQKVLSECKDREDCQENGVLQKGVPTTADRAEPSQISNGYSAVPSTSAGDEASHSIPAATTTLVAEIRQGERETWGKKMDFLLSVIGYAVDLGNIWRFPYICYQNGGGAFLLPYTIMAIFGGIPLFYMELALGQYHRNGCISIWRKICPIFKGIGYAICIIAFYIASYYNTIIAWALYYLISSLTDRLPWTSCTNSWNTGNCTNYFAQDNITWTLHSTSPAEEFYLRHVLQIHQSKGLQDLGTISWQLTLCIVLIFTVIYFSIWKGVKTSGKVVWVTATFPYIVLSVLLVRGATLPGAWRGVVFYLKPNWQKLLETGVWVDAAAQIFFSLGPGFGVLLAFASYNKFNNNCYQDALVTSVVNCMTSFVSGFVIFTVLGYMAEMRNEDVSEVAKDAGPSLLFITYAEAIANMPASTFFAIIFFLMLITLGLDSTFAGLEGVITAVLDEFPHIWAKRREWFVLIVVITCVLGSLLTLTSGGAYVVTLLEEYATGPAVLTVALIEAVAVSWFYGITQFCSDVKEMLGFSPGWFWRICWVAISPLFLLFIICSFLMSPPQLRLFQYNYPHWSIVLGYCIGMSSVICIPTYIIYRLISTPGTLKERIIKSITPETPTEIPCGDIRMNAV

| Compound | Ki (5-HT transporter; [1]) [nM] | Ki (5-HT transporter; [2]) [nM] | IC50 (Human 5-HT Transporter; [3]) [nM] | further results |
| --- | --- | --- | --- | --- |
| COc1cccc(OC2CN([C@H]3CC[C@@H](c4c[nH]c5ccc(C#N)cc54)CC3)C2)c1 [Example 3a] | 2.38 | – | – | IC50 (Human 5-HT Transporter): 91 nM |
| COc1ccccc1NC1CN([C@H]2CC[C@H](c3c[nH]c4ccc(F)cc43)CC2)C1 [Example 1b] | – | 17 | 591 | – |
| 2-{cis-4-[3-(3-Methoxy-phenoxy)-azetidin-1-yl]-cyclohexyl}-1H-indole [Example 6a] | – | 120 | – | – |
| COc1cccc(OC2CN([C@H]3CC[C@H](c4c[nH]c5ccc(F)cc54)CC3)C2)c1 [Example 8b, 5-Fluoro-3-{trans-4-[3-(3-methoxy-phenoxy)-azetidin-1-yl]-cyclohexyl}-1H-indole] | – | 45 | 1500 | – |
| Fc1cccc(OC2CN(C3CCC(c4c[nH]c5cc(F)ccc45)CC3)C2)c1 (single isomer, unassigned) [Example 10a, 6-Fluoro-3-{4-[3-(3-fluoro-phenoxy)-azetidin-1-yl]-cyclohexyl}-1H-indole] | – | 190 | – | – |
| Fc1cccc(NC2CN([C@H]3CC[C@@H](c4c[nH]c5ccc(F)cc54)CC3)C2)c1 [Example 4, {1-[cis-4-(5-Fluoro-1H-indol-3-yl)-cyclohexyl]-azetidin-3-yl}-(3-fluoro-phenyl)-amine] | – | 18 | 6390 | – |
| COc1ccccc1NC1CN([C@H]2CC[C@H](c3c[nH]c4ccccc43)CC2)C1 [Example 5b, {1-[trans-4-(1H-Indol-3-yl)-cyclohexyl]-azetidin-3-yl}-(2-methoxy-phenyl)-amine] | 34 | – | – | – |
| COc1cccc(OC2CN([C@H]3CC[C@H](c4c[nH]c5ccc(C#N)cc54)CC3)C2)c1 [Example 3b] | 11 | – | – | IC50 (Human 5-HT Transporter): 232 nM |
| N#Cc1ccc2[nH]cc([C@H]3CC[C@@H](N4CC(Oc5cccc(F)c5)C4)CC3)c2c1 [Example 2a, 3-(cis-4-[3-(3-Fluoro-phenoxy)-azetidin-1-yl]-cyclohexyl)-1H-indole-5-carbonitrile] | – | 16 | 337 | – |
| N#Cc1ccc2[nH]cc([C@H]3CC[C@H](N4CC(Oc5cccc(F)c5)C4)CC3)c2c1 [Example 2b, 3-(trans-4-[3-(3-Fluoro-phenoxy)-azetidin-1-yl]-cyclohexyl)-1H-indole-5-carbonitrile] | – | 48 | 282 | – |
| Fc1cccc(OC2CN([C@H]3CC[C@H](c4c[nH]c5ccccc54)CC3)C2)c1 [Example 9b, 3-{4-[3-(3-Fluoro-phenoxy)-azetidin-1-yl]-cyclohexyl}-1H-indole] | 455 | – | – | – |
| Fc1cccc(OC2CN(C3CCC(c4c[nH]c5cc(F)ccc45)CC3)C2)c1 (single isomer, unassigned) [Example 10b, 6-Fluoro-3-{4-[3-(3-fluoro-phenoxy)-azetidin-1-yl]-cyclohexyl}-1H-indole] | – | 73 | 4600 | – |
| COc1cccc(OC2CN([C@H]3CC[C@@H](c4c[nH]c5ccc(F)cc54)CC3)C2)c1 [Example 8a, 5-Fluoro-3-{cis-4-[3-(3-methoxy-phenoxy)-azetidin-1-yl]-cyclohexyl}-1H-indole] | – | 24 | 6000 | – |
| COc1ccccc1NC1CN([C@H]2CC[C@@H](c3c[nH]c4ccccc43)CC2)C1 [Example 5a, {1-[cis-4-(1H-Indol-3-yl)-cyclohexyl]-azetidin-3-yl}-(2-methoxy-phenyl)-amine] | 124 | – | – | – |
| Fc1cccc(OC2CN([C@H]3CC[C@@H](c4c[nH]c5ccccc54)CC3)C2)c1 [Example 9a, 3-{4-[3-(3-Fluoro-phenoxy)-azetidin-1-yl]-cyclohexyl}-1H-indole] | 275 | – | – | – |
| COc1ccccc1NC1CN([C@H]2CC[C@@H](c3c[nH]c4ccc(F)cc43)CC2)C1 [Example 1a] | – | 15 | 962 | – |
| Fc1cccc(OC2CN([C@H]3CC[C@H](c4c[nH]c5ccc(F)cc54)CC3)C2)c1 [Example 7b, 5-Fluoro-3-{trans-4-[3-(3-fluoro-phenoxy)-azetidin-1-yl]-cyclohexyl}-1H-indole] | – | – | – | Ki (5-HT transporter; read-out: RB 5HT Transporter Ki; rat frontal cortical membranes; ^3 H-paroxetine (0.1 nM), 60 min, 25° C.; n = 1): 68 nM; IC50 (Human 5-HT Transporter; read-out: HC 5HT Transporter IC50, Jar cells (human carcinoma), staurosporine treated, ^3 H-5-HT uptake, 37° C., 5 min, n = 1): 6000 nM |
| Fc1cccc(OC2CN([C@H]3CC[C@@H](c4c[nH]c5ccc(F)cc54)CC3)C2)c1 [Example 7a, 5-Fluoro-3-{cis-4-[3-(3-fluoro-phenoxy)-azetidin-1-yl]-cyclohexyl}-1H-indole] | – | 257 | – | – |

— patent US6245799A, “[(Indol-3-yl)-cycloalkyl]-3-substituted azetidines for the treatment of central nervous system disorders” (American Home Products Corp, priority 2000, dated 2001)
